# Source: patent publication US20120310117A1, “METHOD FOR […] AND RELATED […]” (The McLean Hospital Corporation, priority 2009, published 2012)
# What was measured:
# [1] = cited from earlier work
# dopamine reuptake = conditions: cited from earlier work
# [2] = 2.5 mg of Focalin has the same therapeutic benefit as 5.0 mg of Ritalin; cited from earlier work
# [3] = test system: boys 9-12 years of age with ADHD combined subtype; test: Infrared motion analysis of head marker movements during a 15-minute cognitive control task (Quotient Test), PRE and 120 minutes POST probe dose MPH; assay type: in vivo, human
# Method: Data were analyzed from a study approved and monitored by the McLean Hospital Institutional Review Board […]. The ADHD sample consisted of 62 boys between 9-12 years of age who met Diagnostic and Statistical Manual of Mental Disorders, 4th edition (DSM-IV) (Diagnostic and statistical manual of mental disorders: DSM-IV.—4th ed., text revision. Washington, D.C: American Psychiatric Association; 2000) criteria for ADHD combined subtype. Subjects were recruited from the general population via newspaper advertisement for hyperactive boys who were currently or previously treated with MPH, as the protocol called from them to receive a moderately large probe dose of immediate release MPH. This was easier to justify in subjects known to tolerate MPH without untoward effects. Parental written consent and child verbal assent were obtained. […] Seventy-three boys went through the screening procedures, which included structured interviews for DSM-IV Axis I psychiatric diagnoses using K-SADS-E (Orvaschel H, Puig-Antich J. Schedule for Affective Disorder and Schizophrenia for School-Age Children, Epidemiologic Version, Fifth Revision. Fort Lauderdale, Fla.: Nova Southeastern University; 1994); and parent ratings on the Conners' Hyperactivity Index (Conners et al., J Abnorm Child Psychol. 26:257 (1998)) and Achenbach Child Behavior Checklist (CBCL) (Achenbach T. Integrative Guide to the 1991 CBCL/4-18, YSR, and TRF Profiles. Burlington, Vt.: University of Vermont, Department of Psychology; 1991). Children with ADHD could not have any current major mood disorder, psychosis, tic disorder, a major anxiety disorder, or mental retardation. Children with oppositional defiant disorder (ODD), or reported learning disorders, could participate. From this pool of subjects, 11 were excluded from further participation. […] One subject was disqualified for drug use, another was disqualified for current antidepressant treatment of night terrors, and one withdrew before the probe dose. […] In this sample, there were 19 boys with comorbid ODD, 2 with current dysthymia, 4 with learning disorders, and 3 with past major depression or past anxiety disorders. […] Sixty of these subjects were previously included in a study examining fluctuations in attentional state (Teicher et al., J Child Adolesc Psychopharmacol. 14:219 (2004)), and 48 were included in a study on pharmacokinetic-pharmacodynamic response to methylphenidate (Teicher et al., J Child Adolesc Psychopharmacol. 16:416 (2006)).
# For comparison, we analyzed data from a representative non-clinical contrast group. This group consisted of 62 male students, randomly selected from a sample of 1168 subjects (6-14 years of age) tested at local public schools using teacher ratings and a computerized attention task with infrared motion analysis (Teicher et al., J Am Acad Child Adolesc Psychiatry 35:334 (1996); Quotient Test, BioBehavioral Diagnostic Company, Cambridge, Mass.). This large-scale database development study was approved by the McLean Hospital IRB and the school administrators. Parents provided written consent and children gave verbal assent to participate. Subjects selected from this sample were male, and matched 1:1 with the ADHD subjects by age to the nearest month (11.0±1.0 years). The selection criteria applied for this analysis was that they needed to have Conners' Teacher Ratings (Conners C K. American Journal of Psychiatry 126:884 (1969)) that were within ±1 SD of the mean of peers their own age and gender (i.e., T score<60), to help exclude subjects with potential ADHD.
# Children with ADHD were tested prior to (PRE) and 120-minutes following (POST) a probe dose of 0.4 mg/kg MPH. Contrast subjects only received a single Quotient Test, which was specifically designed to provide objective measures of hyperactivity, inattention and impulsivity (Teicher et al., J Am Acad Child Adolesc Psychiatry 35:334 (1996)). […]
smiles,measurement,setting,value
CNCC[C@@H](Oc1ccccc1C)c1ccccc1 [Atomoxetine],coverage of symptoms associated with ADHD,[1]; clinical trials in adults and children,24 h
CC(NC(C)(C)C)C(=O)c1cccc(Cl)c1 (stereo not drawn) [Bupropion],potency as inhibitor of dopamine reuptake relative to norepinephrine reuptake,dopamine reuptake,about twice as potent
COC(=O)[C@H](c1ccccc1)[C@H]1CCCCN1 [Focalin],"onset of action, in words",[1]; after administration,immediately
same,potency relative to methylphenidate,[2],twice as potent
"COC(=O)C(c1ccccc1)C1CCCCN1 (stereo not drawn) [MPH, methylphenidate]",MLE in ADHD after MPH relative to contrast subjects,[3]; ADHD POST vs contrast,4.8 fold
same,"ROC Area for MLE, ADHD POST vs contrast subjects",[3]; ADHD POST vs contrast,0.995
same,"ROC Area for β, ADHD POST vs contrast subjects",[3]; ADHD POST vs contrast,0.850
same,"effect size d' for MLE, ADHD after MPH vs contrast subjects",[3]; ADHD POST vs contrast,3.1
same,percentage of ADHD subjects with evidence for a deterministic chaotic component to head movements after MPH,"[3]; MLE vs surrogate data, fell from 84% PRE, 41/62 POST",66%
same,baseline and spike amplitudes and spike numbers relative to contrast group,"[3]; Max-Pass, ADHD POST vs contrast controls",suppressed to at or below contrast group levels
same,reduction of spike amplitude,"[3]; Max-Pass, POST (120 min after 0.4 mg/kg MPH) vs PRE",52%
same,reduction of baseline amplitude,"[3]; Max-Pass, POST (120 min after 0.4 mg/kg MPH) vs PRE, 62 ADHD boys",63%
same,reduction of number of spikes,"[3]; Max-Pass, POST vs PRE",35%
same,"effect size of MPH on ApEn, β and MLE",[3]; POST vs PRE,1.0-1.2
same,within subject reduction in composite inhibitory measures,"[3]; baseline and spike amplitude, POST vs PRE",58.3%±39.9%
same,ADHD subjects POST with evidence for a deterministic component to head positions,"[3]; correlation dimension method with surrogate data, 56/62 PRE",62/62
same,inhibitory measures POST MPH vs controls,[3]; first 5 minutes of the test,did not differ from controls
same,non-linear measures POST MPH vs controls,[3]; first 5 minutes of the test,remained distinctly different than controls
same,Spike area (SpArea) PST AVG,"[3]; post-medication ADHD subjects, N 62, PRE AVG 100897.28, CTRL AVG 42396.0034",36631.5066
same,baseline and spike amplitudes relative to contrast group,"[3]; spike detection by cluster analysis, ADHD POST vs contrast controls",at or below contrast group levels
same,reduction in composite measures of positional stability,"[3]; β, MLE, POST vs PRE",16.6%±19.2%
